# Patent US12637437B2, “Herbicidal compounds” (SYNGENTA CROP PROTECTION AG, priority 2021, dated 2026)
# What was measured:
# Format in all cases: in vivo
# [1] = test system: Amaranthus retoflexus (AMARE); experiment: Post-emergence herbicidal glasshouse test, AMARE; parameters: dose or concentration left out as unconfirmed; conditions: evaluated after 13 days, five-point scale
# Method: (§1) Seeds of a variety of test species are sown in standard soil in pots (Lolium perenne (LOLPE), Amaranthus retoflexus (AMARE), Abutilon theophrasti (ABUTH), Setaria faberi (SETFA), Echinochloa crus-galli (ECHCG), Ipomoea hederacea (IPOHE)). After cultivation for one day (pre-emergence) or after 8 days cultivation (post-emergence) under controlled conditions in a glasshouse (at 24/16° C., day/night; 14 hours light; 65% humidity), the plants are sprayed with an aqueous spray solution derived from the formulation of the technical active ingredient in acetone/water (50:50) solution containing 0.5% Tween 20 (polyoxyethelyene sorbitan monolaurate, CAS RN 9005-64-5). Compounds are applied at 125 g/h unless otherwise indicated. The test plants are then grown in a glasshouse under controlled conditions in a glasshouse (at 24/16° C., day/night; 14 hours light; 65% humidity) and watered twice daily. After 13 days for pre and post-emergence, the test is evaluated for the percentage damage caused to the plant. The biological activities are shown in the following table on a five-point scale (5=80-100%; 4=60-79%; 3=40-59%; 2=20-39%; 1=0-19%). “—” denotes not tested on this species or data not captured.
# [2] = test system: Abutilon theophrasti (ABUTH); experiment: Post-emergence herbicidal glasshouse test, ABUTH; conditions: 125 g/h, evaluated after 13 days, five-point scale
# Method: as §1
# [3] = test system: Setaria faberi (SETFA); experiment: Post-emergence herbicidal glasshouse test, SETFA; conditions: 125 g/h, evaluated after 13 days, five-point scale
# Method: as §1
# [4] = test system: Echinochloa crus-galli (ECHCG); experiment: Post-emergence herbicidal glasshouse test, ECHCG; conditions: 125 g/h, evaluated after 13 days, five-point scale
# Method: as §1
# [5] = test system: Ipomoea hederacea (IPOHE); experiment: Post-emergence herbicidal glasshouse test, IPOHE; conditions: 125 g/h, evaluated after 13 days, five-point scale
# Method: as §1
# [6] = test system: Amaranthus retoflexus (AMARE); experiment: Pre-emergence herbicidal glasshouse test, AMARE; conditions: 125 g/h, evaluated after 13 days, five-point scale
# Method: as §1
# [7] = test system: Abutilon theophrasti (ABUTH); experiment: Pre-emergence herbicidal glasshouse test, ABUTH; conditions: 125 g/h, evaluated after 13 days, five-point scale
# Method: as §1
# [8] = test system: Setaria faberi (SETFA); experiment: Pre-emergence herbicidal glasshouse test, SETFA; conditions: 125 g/h, evaluated after 13 days, five-point scale
# Method: as §1
# [9] = test system: Echinochloa crus-galli (ECHCG); experiment: Pre-emergence herbicidal glasshouse test, ECHCG; conditions: 125 g/h, evaluated after 13 days, five-point scale
# Method: as §1
# [10] = test system: Ipomoea hederacea (IPOHE); experiment: Pre-emergence herbicidal glasshouse test, IPOHE; conditions: 125 g/h, evaluated after 13 days, five-point scale
# Method: as §1
SMILES,"percentage damage caused to the plant, POST Application AMARE [1]","percentage damage caused to the plant, POST Application ABUTH [2]","percentage damage caused to the plant, POST Application SETFA [3]","percentage damage caused to the plant, POST Application ECHCG [4]","percentage damage caused to the plant, POST Application IPOHE [5]","percentage damage caused to the plant, PRE Application AMARE [6]","percentage damage caused to the plant, PRE Application ABUTH [7]","percentage damage caused to the plant, PRE Application SETFA [8]","percentage damage caused to the plant, PRE Application ECHCG [9]","percentage damage caused to the plant, PRE Application IPOHE [10]"
CCn1nnnc1NC(=O)c1ccc(OC(F)F)c(NC(=O)OC)c1Cl [Compound 1.010],4 (4=60-79%),3 (3=40-59%),5 (5=80-100%),5 (5=80-100%),4 (4=60-79%),3 (3=40-59%),5 (5=80-100%),3 (3=40-59%),3 (3=40-59%),4 (4=60-79%)
CCOC(=O)Nc1c(OC(F)(F)F)ccc(C(=O)Nc2nnnn2CC)c1Cl [Compound 1.004],4 (4=60-79%),4 (4=60-79%),4 (4=60-79%),4 (4=60-79%),4 (4=60-79%),5 (5=80-100%),5 (5=80-100%),3 (3=40-59%),5 (5=80-100%),4 (4=60-79%)
CC(C)OC(=O)Nc1c(OC(F)(F)F)ccc(C(=O)Nc2nnnn2C)c1Cl [Compound 1.007],4 (4=60-79%),5 (5=80-100%),4 (4=60-79%),4 (4=60-79%),4 (4=60-79%),5 (5=80-100%),5 (5=80-100%),4 (4=60-79%),5 (5=80-100%),4 (4=60-79%)
CCOC(=O)Nc1c(OC(F)F)ccc(C(=O)Nc2nnnn2CC)c1Cl [Compound 1.009],4 (4=60-79%),4 (4=60-79%),3 (3=40-59%),5 (5=80-100%),4 (4=60-79%),5 (5=80-100%),5 (5=80-100%),3 (3=40-59%),4 (4=60-79%),4 (4=60-79%)
COC(=O)Nc1c(OC(F)F)ccc(C(=O)Nc2nnnn2C)c1Cl [Compound 1.005],5 (5=80-100%),5 (5=80-100%),5 (5=80-100%),5 (5=80-100%),5 (5=80-100%),5 (5=80-100%),5 (5=80-100%),4 (4=60-79%),5 (5=80-100%),4 (4=60-79%)
CCOC(=O)Nc1c(OC(F)F)ccc(C(=O)Nc2nnnn2C)c1Cl [Compound 1.008],4 (4=60-79%),4 (4=60-79%),4 (4=60-79%),4 (4=60-79%),4 (4=60-79%),5 (5=80-100%),5 (5=80-100%),4 (4=60-79%),5 (5=80-100%),4 (4=60-79%)
Cn1nnnc1NC(=O)c1ccc(OC(F)F)c(NC(=O)OCCC#N)c1Cl [Compound 1.024],5 (5=80-100%),–,5 (5=80-100%),5 (5=80-100%),4 (4=60-79%),5 (5=80-100%),–,3 (3=40-59%),4 (4=60-79%),5 (5=80-100%)
CCOC(=O)N(CC)c1c(OC(F)(F)F)ccc(C(=O)Nc2nnnn2C)c1Cl [Compound 1.031],5 (5=80-100%),–,5 (5=80-100%),5 (5=80-100%),5 (5=80-100%),5 (5=80-100%),–,5 (5=80-100%),5 (5=80-100%),5 (5=80-100%)
Cn1nnnc1NC(=O)c1ccc(OC(F)(F)F)c(NC(=O)OCCC#N)c1Cl [Compound 1.012],5 (5=80-100%),–,5 (5=80-100%),5 (5=80-100%),5 (5=80-100%),5 (5=80-100%),–,5 (5=80-100%),5 (5=80-100%),4 (4=60-79%)
CCn1nnnc1NC(=O)c1ccc(OC(F)(F)F)c(NC(=O)OC)c1Cl [Compound 1.003],4 (4=60-79%),4 (4=60-79%),4 (4=60-79%),4 (4=60-79%),4 (4=60-79%),5 (5=80-100%),5 (5=80-100%),5 (5=80-100%),5 (5=80-100%),4 (4=60-79%)
Cn1nnnc1NC(=O)c1ccc(OC(F)(F)F)c(NC(=O)OC2CCOCC2)c1Cl [Compound 1.020],5 (5=80-100%),–,5 (5=80-100%),5 (5=80-100%),5 (5=80-100%),5 (5=80-100%),–,5 (5=80-100%),5 (5=80-100%),5 (5=80-100%)
Cn1nnnc1NC(=O)c1ccc(OC(F)(F)F)c(NC(=O)OCCS(C)(=O)=O)c1Cl [Compound 1.013],4 (4=60-79%),–,5 (5=80-100%),5 (5=80-100%),2 (2=20-39%),5 (5=80-100%),–,2 (2=20-39%),2 (2=20-39%),2 (2=20-39%)
COCCCOC(=O)Nc1c(OC(F)(F)F)ccc(C(=O)Nc2nnnn2C)c1Cl [Compound 1.019],5 (5=80-100%),–,5 (5=80-100%),5 (5=80-100%),4 (4=60-79%),3 (3=40-59%),–,2 (2=20-39%),5 (5=80-100%),4 (4=60-79%)
CC(=O)N1CCC(OC(=O)Nc2c(OC(F)(F)F)ccc(C(=O)Nc3nnnn3C)c2Cl)CC1 [Compound 1.021],4 (4=60-79%),–,4 (4=60-79%),5 (5=80-100%),2 (2=20-39%),3 (3=40-59%),–,1 (1=0-19%),1 (1=0-19%),2 (2=20-39%)
